{"source": "BindingDB's records for patent US10174013", "about": "(Selvita S.A., 2019)", "key": {"[1]": {"target": "Potassium voltage-gated channel subfamily H member 2 (Homo sapiens, UniProt Q12809)", "sequence (Q12809 whole entry)": "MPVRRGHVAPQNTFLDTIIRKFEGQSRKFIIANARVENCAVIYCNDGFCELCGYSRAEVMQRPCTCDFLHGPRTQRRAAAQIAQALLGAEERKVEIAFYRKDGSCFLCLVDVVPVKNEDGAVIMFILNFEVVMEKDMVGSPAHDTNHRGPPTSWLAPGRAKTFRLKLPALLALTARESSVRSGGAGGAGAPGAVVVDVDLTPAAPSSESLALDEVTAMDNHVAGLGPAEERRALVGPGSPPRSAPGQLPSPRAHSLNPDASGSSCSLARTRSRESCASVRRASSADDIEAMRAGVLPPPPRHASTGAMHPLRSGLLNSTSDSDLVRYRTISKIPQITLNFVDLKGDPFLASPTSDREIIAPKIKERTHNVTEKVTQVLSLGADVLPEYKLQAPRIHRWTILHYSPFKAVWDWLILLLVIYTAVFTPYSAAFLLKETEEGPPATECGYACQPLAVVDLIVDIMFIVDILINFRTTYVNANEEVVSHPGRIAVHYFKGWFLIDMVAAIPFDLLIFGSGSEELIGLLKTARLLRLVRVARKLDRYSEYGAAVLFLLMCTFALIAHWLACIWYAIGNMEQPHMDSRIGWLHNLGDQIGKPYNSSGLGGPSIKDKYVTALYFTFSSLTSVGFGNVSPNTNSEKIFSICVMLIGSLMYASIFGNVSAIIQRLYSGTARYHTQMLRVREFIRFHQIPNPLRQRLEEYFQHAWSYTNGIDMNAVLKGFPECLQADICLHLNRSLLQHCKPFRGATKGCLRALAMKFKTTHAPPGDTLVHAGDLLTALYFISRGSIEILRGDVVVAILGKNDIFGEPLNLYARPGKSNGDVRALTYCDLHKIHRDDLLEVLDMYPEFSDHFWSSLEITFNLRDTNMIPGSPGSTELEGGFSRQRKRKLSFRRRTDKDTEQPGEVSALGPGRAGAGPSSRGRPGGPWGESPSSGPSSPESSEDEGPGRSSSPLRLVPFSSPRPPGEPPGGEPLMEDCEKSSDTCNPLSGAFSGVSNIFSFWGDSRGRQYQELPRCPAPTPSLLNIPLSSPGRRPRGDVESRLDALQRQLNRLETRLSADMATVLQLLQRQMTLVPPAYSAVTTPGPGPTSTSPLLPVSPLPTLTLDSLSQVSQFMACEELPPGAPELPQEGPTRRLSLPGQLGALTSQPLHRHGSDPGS", "assay": "Determination of a Possible Activity on hERG", "protocol": "In order to establish whether the compounds of the present invention act on hERG, the following experiment was carried out.The in vitro effects of the compounds indicated in Table 5 on the hERG potassium channel current (a surrogate for Iκr, the rapidly activating, delayed rectifier cardiac potassium current) expressed in mammalian cells were evaluated at room temperature using the QPatch HT (Sophion Bioscience A/S, Denmark), an automatic parallel patch clamp system. Each compound indicated in Table 5 was evaluated at 0.1, 1, 3, 10 and 30 μM with each concentration tested in a minimum of two cells (n≥2). The duration of exposure to each compound concentration was 3 minutes."}, "[2]": {"target": "Receptor-type tyrosine-protein kinase FLT3 (Homo sapiens, UniProt P36888)", "assay": "FLT3 Kinase assay", "method": "(§1) Selected compounds were also tested for their binding properties against FLT3 kinase mutants using suitable in vitro assays (performed according to standard assays at DiscoveRx Corporation). The compounds show strong binding to the main oncogenic mutants of the FLT3 kinase."}, "[3]": {"target": "Receptor-type tyrosine-protein kinase FLT3 [D835Y] (Homo sapiens, UniProt P36888, D835Y)", "assay": "FLT3 Kinase assay", "method": "as §1"}, "[4]": {"target": "Receptor-type tyrosine-protein kinase FLT3 [D835H] (Homo sapiens, UniProt P36888, D835H)", "assay": "FLT3 Kinase assay", "method": "as §1"}}}
{"smiles": "CCn1c(N2CCNCC2)nc2c([N+](=O)[O-])c(Br)c(Br)cc21", "note": "[US10174013, Example 1A]", "values": [{"measurement": "IC50", "setting": "[1]", "result": 20.4, "unit": "µM"}]}
{"smiles": "CC(C)n1c(N2CCNCC2)nc2c([N+](=O)[O-])c(Br)c(Br)cc21", "note": "[US10174013, Example 2A]", "values": [{"measurement": "Kd", "setting": "[2]", "result": 130, "unit": "nM"}, {"measurement": "Kd", "setting": "[3]", "result": 15, "unit": "nM"}, {"measurement": "Kd", "setting": "[4]", "result": 28, "unit": "nM"}]}
